The text below walks through data of patent US20220315632A1, “COMBINATION OF DIETARY PEPTIDES” (DIET4LIFE APS, priority 2019, published 2022).

Ends that are not written are not given here. Peptide text beside a SMILES is read from it.

Data set [1] can be described thus: Stability of peptides in serum (Fetal Bovine Serum), activity remaining. Format: in vitro ADME. The note with it: octapeptides X-SDKPYIL; fraction of peptide activity left after 10 min of incubation in serum at 37° C. Here is the method: All peptides were incubated at 10^−5 M with Fetal Bovine Serum (FBS; final concentration of 66.7%) (Sigma Aldrich, Denmark) at 37° C. for 3 hours. The peptide degradation was terminated using 1 M phosphoric acid (final 0.4 M, pH ˜1.2) and neutralized to pH 7.2-7.4 with NaOH before testing activity in intestinal cells. As for small intestine homogenates, a zero degradation control was included for each peptide.
DC7-2, NT, DKPYIL and NT-(8-13) (final concentration of 10^−6 M) were incubated either with FBS or with 270× diluted intestinal homogenate at 37° C. for various time points with shaking. Degradation was stopped with 1 M phosphoric acid and the samples were subsequently neutralized and immediately tested with intestinal cells as described above. Control for zero degradation was included for each peptide as above.
The 20 hexapeptides with systematic N-terminal substitutions (X-KPYIL) (Schafer-N, Denmark) and NT (8-13) was incubated at 10^−6 M in either FBS for 10 minutes or with 270× diluted intestinal homogenate for 30 minutes at 37° C. with shaking. The degradation was stopped with 1 M phosphoric acid. Peptide solutions were neutralized with NaOH (pH 7.2-7.4), diluted and immediately tested for bioactivity using murine intestinal cells. Determination of EC50 for stimulation of cells allowed calculation of recovered peptide. Systematic substitutions of N-terminal amino acids in octapeptide […] and their importance for activity and stability. Sequence, activity and stability of DC7-2 is italicized.

In the next data set the target is murine intestinal cells (Mus musculus, UniProt O88319). In words: Ca2+ flux / calcium response assay (cell signaling activity) in murine intestinal cells. It is filed as cell-based. The settings on record: FIG. 2, truncation. A general note: Calcium assays in cells follow changes in intracellular calcium, usually with a dye or a luminescent sensor.
In data set [2] the test system is human (hIC) intestinal cells. The data set can be described thus: Ca2+ flux / calcium response assay in human intestinal cells (hIC). Format: cell-based. The note with it: FIG. 2, truncation. Here is the method: Elevation of intracellular calcium level was measured using the fluorescent calcium chelating dye Fluo-4 AM (ThermoFischer Scientific, Denmark). Briefly, cells were grown as a monolayer in 96-well tissue culture plates (Sarstedt, Germany) to near confluence in appropriate growth medium as described in the cell culture section. Prior to the start of the assay, the cells were incubated with 1.5 μM Fluo-4 AM in complete culture media mixed 1:1 with Hank's balanced salt solution (HBSS, ThermoFischer Scientific, Denmark) containing 25 mM HEPES (pH 7.4), 1% BSA (Sigma-Aldrich, Denmark), 2% ink (Soluro GMBH, Germany), 0.01% Pluronic F-127 (Sigma-Aldrich, Denmark) and 1 mM Probenecide (Sigma-Aldrich) for 60 minutes at 37° C.
All test compounds were dissolved in water, and then diluted in 1×HBSS containing 25 mM HEPES (pH 7.4), 1% BSA and 2% ink. Without any removal of excess Fluo-4 AM, test compounds were added directly into the wells and fluorescence were measured using instrument settings for excitation at 488 nm and emission at 525 nm in a microtiter plate reader (SpectraMax M5, Molecular Devices, USA).
Human intestinal cell lines were cultured in McCoy's modified 5A medium supplemented with 10% fetal bovine serum and 1% penicillin/streptomycin/neomycin at 37° C. and 5% CO2 in a humidified incubator.

Data set [3] relates to mice. The note with it: 1 week of daily exposure in mice; cited from earlier work.
A further data set deals with Swiss-Webster females. The data set can be described thus: Chronic feed intake, 3-week daily administration. Format: in vivo. The note with it: FIG. 18; liraglutide 3 μg/mouse s.c., DC7-2 1 mg/mouse i.p., sitagliptin 0.025 mg/mouse. The source says:
FIG. 18. […] Mice had free access to water and feed in this 3-week study (n=14-18 per group). Significance (P<0.05) is shown as * compared to the corresponding vehicle control.
The effect of DC7-2 alone or in combination with liraglutide on feed intake and body weight was investigated in outbred Swiss-Webster females.

Another data set relates to pepsin. The data set can be described thus: Pepsin degradation (proteolytic digest of meat). The note with it: present in proteolytic digests. Here is the method: Minced meat is diluted 1-10 times with distilled water, adjusted to pH 1-3 with hydrochloric acid, and incubated with 0.01-10% pepsin (w/w) at 4-40° C. for ½-12 h with adequate mixing. Insoluble material is removed by centrifugation at 100-1000 xg for 3-30 min, and supernatant is neutralized with NaOH. Using sterile conditions, low molecular weight peptides in supernatant are recovered by tangential ultrafiltration at 4-40° C. for ½-12 h, and excess water is evaporated at 25-50° C. for up to 12 h. The concentrated dialysate is tested for bioactivity with cells and used for further purification by HPLC.

Data set [4] concerns mice. The settings on record: mouse, in vivo, ip, 128 mg/kg. The protocol:
Liraglutide reached its maximum inhibition of gastric emptying at doses higher than 3 mg/kg retaining approximately 30% of the phenol red marker solution in the stomach. […] A combination test was designed in which DC7-2 was given at EC50 (3 mg/kg) together with different doses of liraglutide (same as used in dose-response test) (FIG. 17 B). […] This was further supported by the different maximum values observed for liraglutide and DC7-2 alone, respectively.

Sequence of murine intestinal cells (O88319 whole entry, the tested form may be a part): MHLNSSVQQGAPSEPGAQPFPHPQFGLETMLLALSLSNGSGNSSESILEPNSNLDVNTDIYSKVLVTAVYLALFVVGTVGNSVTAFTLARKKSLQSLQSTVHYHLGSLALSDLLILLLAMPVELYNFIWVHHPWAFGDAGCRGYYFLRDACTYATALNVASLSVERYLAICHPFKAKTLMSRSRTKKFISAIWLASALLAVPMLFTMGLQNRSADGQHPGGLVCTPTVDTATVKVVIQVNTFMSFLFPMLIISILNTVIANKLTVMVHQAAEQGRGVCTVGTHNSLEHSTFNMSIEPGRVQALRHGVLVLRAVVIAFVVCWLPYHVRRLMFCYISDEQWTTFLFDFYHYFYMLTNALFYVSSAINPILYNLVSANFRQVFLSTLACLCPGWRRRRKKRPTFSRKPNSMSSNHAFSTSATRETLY
Excerpt for murine intestinal cells: Murine intestinal enteroendocrine L-cell lines that expresses the proglucagon gene and secretes GLP-1 in vitro were used.

Regarding TSDKPYIL [compound 36052], in data set [1], the “Stability in serum (activity remaining)” value is reported as 0.0535 fraction.
With DSDKPYIL [compound 36038], the “Stability in serum (activity remaining)” value in data set [1] is 0.0947 fraction.
On to LSDKPYIL [compound 36045], for which the “Stability in serum (activity remaining)” value in data set [1] is recorded as 0.0917 fraction.
In the case of ESDKPYIL [compound 36039], the “Stability in serum (activity remaining)” value in data set [1] was 0.0964 fraction.
In the case of `CC[C@H](C)[C@H](NC(=O)[C@H](Cc1ccc(O)cc1)NC(=O)[C@@H]1CCCN1)C(=O)N[C@@H](CC(C)C)C(=O)O` [PYIL] (H-PYIL-OH), the “activity compared with the full sequence ASDKPYIL in mIC” value on murine intestinal cells is given as “two orders of magnitude lower activity”. The “activity in hIC” value in data set [2] is reported as “no activity”.
Turning to RSDKPYIL [compound 36050], in data set [1], the “Stability in serum (activity remaining)” value is on record as 0.0735 fraction.
For the molecule exendin-4, the “desensitization of glucose homeostasis” value in the data set with mice [3] is listed as “a tendency but not significant difference”.
For the molecule `N[C@@H](CC(=O)N1CCn2c(nnc2C(F)(F)F)C1)Cc1cc(F)c(F)cc1F` [sitagliptin], the “accumulative feed intake after repeated daily administration” value in the data set with Swiss-Webster females is reported as “reduces feed intake”.
For CSDKPYIL [compound 36037], the “Stability in serum (activity remaining)” value in data set [1] stood at 0.0963 fraction.
Still for that read-out and setting: with YSDKPYIL [compound 36055] the figure was 0.0491 fraction; with KSDKPYIL [compound 36044], 0.0527 fraction.
The same measure, in the same setting: with PSDKPYIL [compound 36048] the figure was 0.0772 fraction; with NSDKPYIL [compound 36047], 0.0872 fraction.
Still for that read-out and setting: as for VSDKPYIL [compound 36053], the figure is 0.0488 fraction.
On to HSDKPYIL [compound 36042], for which the “Stability in serum (activity remaining)” value in data set [1] came to 0.0980 fraction.
As for ASDKPYIL [Peptide ID 36036, A SDKPYIL], in the data set with pepsin, the pepsin degradation result is given as “resistant to pepsin degradation”. In the data set with mice [4], the “inhibition of gastric emptying” value is reported as roughly 50%.
With FSDKPYIL [compound 36040], the “Stability in serum (activity remaining)” value in data set [1] was determined as 0.0944 fraction.
On to WSDKPYIL [compound 36054], for which the “Stability in serum (activity remaining)” value in data set [1] turned out to be 0.0426 fraction.
Same read-out and setting: with ASDKPYIL [compound 36036] the figure was 0.0988 fraction; with GSDKPYIL [compound 36041], 0.0912 fraction.
The same measure, in the same setting: with SSDKPYIL [compound 36051] the figure was 0.0609 fraction.
The same measure, in the same setting: with QSDKPYIL [compound 36049] the figure was 0.0742 fraction.
As for ISDKPYIL [compound 36043], the “Stability in serum (activity remaining)” value in data set [1] came to 0.0956 fraction.
The same measure, in the same setting: as for MSDKPYIL [compound 36046], the figure is 0.0762 fraction.
